Experimental data published in patent US10953100B2, “Compounds and therapeutic uses thereof” (priority 2015, dated 2021).

What follows are compounds tested against Anti-alpha galactosyl IgG antibody (assay: ELISA assay: streptavidin-captured biotin compound, binding of anti-alpha galactosyl IgG antibody). Conditions: geometric mean with standard error in brackets; streptavidin plate, anti-alpha galactosyl IgG 0.5 μg/mL; read-out: Concentration at half maximal binding.
Design: species or system human
Experimental: Compounds containing F (representing a carbohydrate molecule capable of binding to a human anti-alpha-galactosyl antibody) and L (as biotin) were assayed for binding at both ends of the compound using an enzyme-linked immunosorbent assay (ELISA). Streptavidin-coated plates captured biotin to the surface of the plate and the binding of anti-alpha galactosyl antibodies to the alpha-galactosyl moiety was reported by a secondary antibody labelled with HRP (Horse Radish Peroxidase).
Compounds were titrated 1.5 fold from a top dose of 50 nM in phosphate buffered saline (PBS) (Sigma D8537)+0.025% DMSO (Dimethyl Sulphoxide, Sigma D8418). Streptavidin immobilizer 96-well plates (nunc 436014) were coated with 100 μL of compound at room temperature for 2 hours shaking at 500 rpm. Plates were washed with 2×200 μL PBS-T (PBS with 0.05% Tween 20 (Sigma P9416)) and 1×200 μL PBS-T with a 5 minute incubation shaking at room temperature, prior to being blocked for 1 hour at room temperature with 1% Bovine Serum Albumin (BSA, Sigma A2153) in PBS-T. After removing the blocking buffer, 50 μL of Anti-alpha galactosyl IgG antibody (Anti-alpha-galactosyl antibody was purified from human IVIG (Gammagard) by affinity purification using an alpha-galactosyl-HSA (Human Serum Albumin) sepharose column by Rockland Immunochemicals Inc.) at 0.5 μg/mL in PBS-T+1% BSA and incubated shaking at room temperature for 1 hour.
Plates were washed 2×200 μL PBS-T and 3×200 μL PBS-T with a 5 minute incubation, shaking at room temperature before the addition of 50 μL 1:5000 Goat Anti-Human IgG-HRP (horseradish peroxidase) conjugate (Abcam ab97175). The plates were incubated shaking at room temperature for 1 hour before a final wash of 2×200 μL PBS-T and 3×200 μl PBS-T with a 5 minute incubation shaking at room temperature. 100 μL TMB buffer (3,3′,5,5′-tetramethylbenzidine, a chromogenic substrate for horseradish peroxidase) (Pierce 34021) was added to the plate and allowed to develop for 5-10 minutes before the samples were quenched with 50 μL 2M sulfuric acid (Sigma 258105). The absorbance was read at 450 nm on an Envision plate reader (Perkin Elmer). Results from wells (duplicate) were averaged and the 50% binding affinity calculated.
The concentration at which half-maximal binding is achieved is reported as a geometric mean with standard error in brackets. The number of independent experiments is also reported. In order to achieve a signal both ends of the molecule are required to bind (biotin to streptavidin and alpha-galactosyl to anti-alpha galactosyl antibodies) simultaneously.

Question: For CC(=O)N[C@H]1[C@H](OCCCNC(=O)COc2cccc(CNC(=O)CCCCC(=O)NCCNC(=O)CCCC[C@@H]3SC[C@@H]4NC(=O)N[C@@H]43)c2)O[C@H](CO)[C@@H](O[C@@H]2O[C@H](CO)[C@H](O)[C@H](O[C@H]3O[C@H](CO)[C@H](O)[C@H](O)[C@H]3O)[C@H]2O)[C@@H]1O [Example 12, N^1-(3-(2-((3-(((2R,3R,4R,5S,6R)-3-Acetamido-5-(((2S,3R,4S,5S,6R)-3,5-dihydroxy-6-(hydroxymethyl)-4-(((2R,3R,4S,5R,6R)-3,4,5-trihydroxy-6-(hydroxymethyl)tetrahydro-2H-pyran-2-yl)oxy)tetrahydro-2H-pyran-2-yl)oxy)-4-hydroxy-6-(hydroxymethyl)tetrahydro-2H-pyran-2-yl)oxy)propyl)amino)-2-oxoethoxy)benzyl)-N6-(2-(5-((3aS,4S,6aR)-2-oxohexahydro-1H-thieno[3,4-d]imidazol-4-yl)pentanamido)ethyl)adipamide], which EC50 is on record?
Answer: 37.3 nM

Question: For CC(=O)NC1C(OCCCNC(=O)COc2cccc(C(=O)NCCNC(=O)CCOCCOCCOCCOCCOCCOCCOCCOCCOCCOCCOCCOCCNC(=O)CCCCC3SCC4NC(=O)NC43)c2)OC(CO)C(OC2OC(CO)C(O)C(OC3OC(CO)C(O)C(O)C3O)C2O)C1O (stereo not drawn) [Example 3], which EC50 is on record?
Answer: 15 nM

Question: How did the EC50 turn out when CC(=O)NC1C(OCCCNC(=O)CCOCCOCCOCCOCCNC(=O)COc2ccc(-c3cc(OCC(=O)NCCOCCOCCOCCOCCC(=O)NCCCOC4OC(CO)C(OC5OC(CO)C(O)C(OC6OC(CO)C(O)C(O)C6O)C5O)C(O)C4NC(C)=O)cc(C(=O)NCCNC(=O)CCOCCOCCOCCOCCOCCOCCOCCOCCOCCOCCOCCOCCNC(=O)CCCCC4SCC5NC(=O)NC54)c3)cc2)OC(CO)C(OC2OC(CO)C(O)C(OC3OC(CO)C(O)C(O)C3O)C2O)C1O (stereo not drawn) [Example 53] was run?
Answer: 34.9 nM

Question: CC(=O)NC1C(OCCCNC(=O)CCOCCOCCOCCOCCNC(=O)COc2cc(OCC(=O)NCCOCCOCCOCCOCCC(=O)NCCCOC3OC(CO)C(OC4OC(CO)C(O)C(OC5OC(CO)C(O)C(O)C5O)C4O)C(O)C3NC(C)=O)cc(-c3cc(OCC(=O)NCCOCCOCCOCCOCCC(=O)NCCCOC4OC(CO)C(OC5OC(CO)C(O)C(OC6OC(CO)C(O)C(O)C6O)C5O)C(O)C4NC(C)=O)cc(C(=O)NCCNC(=O)CCOCCOCCOCCOCCOCCOCCOCCOCCOCCOCCOCCOCCNC(=O)CCCCC4SCC5NC(=O)NC54)c3)c2)OC(CO)C(OC2OC(CO)C(O)C(OC3OC(CO)C(O)C(O)C3O)C2O)C1O (stereo not drawn) [Example 54] was tested. Which EC50 did it give?
Answer: 22.8 nM

Question: For CC(=O)N[C@H]1[C@H](OCCCNC(=O)COc2cc(OCC(=O)NCCCO[C@@H]3O[C@H](CO)[C@@H](O[C@@H]4O[C@H](CO)[C@H](O)[C@H](O[C@H]5O[C@H](CO)[C@H](O)[C@H](O)[C@H]5O)[C@H]4O)[C@H](O)[C@H]3NC(C)=O)cc(C(=O)NCCNC(=O)CCCC[C@@H]3SC[C@@H]4NC(=O)N[C@@H]43)c2)O[C@H](CO)[C@@H](O[C@@H]2O[C@H](CO)[C@H](O)[C@H](O[C@H]3O[C@H](CO)[C@H](O)[C@H](O)[C@H]3O)[C@H]2O)[C@@H]1O [Example 5], which EC50 is on record?
Answer: 9.1 nM

Question: CC(=O)NC1C(OCCCNC(=O)CCOCCOCCOCCOCCNC(=O)COc2cc(OCC(=O)NCCOCCOCCOCCOCCC(=O)NCCCOC3OC(CO)C(OC4OC(CO)C(O)C(OC5OC(CO)C(O)C(O)C5O)C4O)C(O)C3NC(C)=O)cc(C(=O)NCCNC(=O)CCOCCOCCOCCOCCOCCOCCOCCOCCOCCOCCOCCOCCNC(=O)CCCCC3SCC4NC(=O)NC43)c2)OC(CO)C(OC2OC(CO)C(O)C(OC3OC(CO)C(O)C(O)C3O)C2O)C1O (stereo not drawn) [Example 21] was tested. Which EC50 did it give?
Answer: 14.8 nM

Question: CC(=O)N[C@H]1[C@H](OCCCNC(=O)c2cccc(OCC(=O)NCCNC(=O)CCCC[C@@H]3SC[C@@H]4NC(=O)N[C@@H]43)c2)O[C@H](CO)[C@@H](O[C@@H]2O[C@H](CO)[C@H](O)[C@H](O[C@H]3O[C@H](CO)[C@H](O)[C@H](O)[C@H]3O)[C@H]2O)[C@@H]1O [Example 4, N-(3-(((2R,3R,4R,5S,6R)-3-Acetamido-5-(((2S,3R,4S,5S,6R)-3,5-dihydroxy-6-(hydroxymethyl)-4-(((2R,3R,4S,5R,6R)-3,4,5-trihydroxy-6-(hydroxymethyl)tetrahydro-2H-pyran-2-yl)oxy)tetrahydro-2H-pyran-2-yl)oxy)-4-hydroxy-6-(hydroxymethyl)tetrahydro-2H-pyran-2-yl)oxy)propyl)-3-(2-oxo-2-((2-(5-((3aS,4S,6aR)-2-oxohexahydro-1H-thieno[3,4-d]imidazol-4-yl)pentanamido)ethyl)amino)ethoxy)benzamide] was tested. Which EC50 did it give?
Answer: 13.1 nM

Question: For CC(=O)NC1C(OCCCNC(=O)CCOCCOCCOCCOCCOCCOCCOCCOCCOCCOCCOCCOCCNC(=O)COc2cc(OCC(=O)NCCOCCOCCOCCOCCOCCOCCOCCOCCOCCOCCOCCOCCC(=O)NCCCOC3OC(CO)C(OC4OC(CO)C(O)C(OC5OC(CO)C(O)C(O)C5O)C4O)C(O)C3NC(C)=O)cc(-c3cc(OCC(=O)NCCOCCOCCOCCOCCOCCOCCOCCOCCOCCOCCOCCOCCC(=O)NCCCOC4OC(CO)C(OC5OC(CO)C(O)C(OC6OC(CO)C(O)C(O)C6O)C5O)C(O)C4NC(C)=O)cc(C(=O)NCCNC(=O)CCOCCOCCOCCOCCOCCOCCOCCOCCOCCOCCOCCOCCNC(=O)CCCCC4SCC5NC(=O)NC54)c3)c2)OC(CO)C(OC2OC(CO)C(O)C(OC3OC(CO)C(O)C(O)C3O)C2O)C1O (stereo not drawn) [Example 57], which EC50 is on record?
Answer: 15.4 nM

Question: How did the EC50 turn out when CC(=O)NC1C(OCCCNC(=O)CCOCCOCCOCCOCCOCCOCCOCCOCCOCCOCCOCCOCCNC(=O)COc2cc(OCC(=O)NCCOCCOCCOCCOCCOCCOCCOCCOCCOCCOCCOCCOCCC(=O)NCCCOC3OC(CO)C(OC4OC(CO)C(O)C(OC5OC(CO)C(O)C(O)C5O)C4O)C(O)C3NC(C)=O)cc(-c3cc(OCC(=O)NCCOCCOCCOCCOCCOCCOCCOCCOCCOCCOCCOCCOCCC(=O)NCCCOC4OC(CO)C(OC5OC(CO)C(O)C(OC6OC(CO)C(O)C(O)C6O)C5O)C(O)C4NC(C)=O)cc(C(=O)NCCNC(=O)CCCCC4SCC5NC(=O)NC54)c3)c2)OC(CO)C(OC2OC(CO)C(O)C(OC3OC(CO)C(O)C(O)C3O)C2O)C1O (stereo not drawn) [Example 56] was run?
Answer: 16.3 nM

Question: For CC(=O)N[C@H]1[C@H](OCCCNC(=O)COc2ccc(C(=O)NCCNC(=O)CCCC[C@@H]3SC[C@@H]4NC(=O)N[C@@H]43)cc2)O[C@H](CO)[C@@H](O[C@@H]2O[C@H](CO)[C@H](O)[C@H](O[C@H]3O[C@H](CO)[C@H](O)[C@H](O)[C@H]3O)[C@H]2O)[C@@H]1O [Example 8, 4-(2-((3-(((2R,3R,4R,5S,6R)-3-Acetamido-5-(((2S,3R,4S,5S,6R)-3,5-dihydroxy-6-(hydroxymethyl)-4-(((2R,3R,4S,5R,6R)-3,4,5-trihydroxy-6-(hydroxymethyl)tetrahydro-2H-pyran-2-yl)oxy)tetrahydro-2H-pyran-2-yl)oxy)-4-hydroxy-6-(hydroxymethyl)tetrahydro-2H-pyran-2-yl)oxy)propyl)amino)-2-oxoethoxy)-N-(2-(5-((3aS,4S,6aR)-2-oxohexahydro-1H-thieno[3,4-d]imidazol-4-yl)pentanamido)ethyl)benzamide], which EC50 is on record?
Answer: 28.8 nM

Question: With CC(=O)N[C@H]1[C@H](OCCCNC(=O)COc2cc(OCC(=O)NCCCO[C@@H]3O[C@H](CO)[C@@H](O[C@@H]4O[C@H](CO)[C@H](O)[C@H](O[C@H]5O[C@H](CO)[C@H](O)[C@H](O)[C@H]5O)[C@H]4O)[C@H](O)[C@H]3NC(C)=O)cc(-c3cc(OCC(=O)NCCCO[C@@H]4O[C@H](CO)[C@@H](O[C@@H]5O[C@H](CO)[C@H](O)[C@H](O[C@H]6O[C@H](CO)[C@H](O)[C@H](O)[C@H]6O)[C@H]5O)[C@H](O)[C@H]4NC(C)=O)cc(C(=O)NCCNC(=O)CCCC[C@@H]4SC[C@@H]5NC(=O)N[C@@H]54)c3)c2)O[C@H](CO)[C@@H](O[C@@H]2O[C@H](CO)[C@H](O)[C@H](O[C@H]3O[C@H](CO)[C@H](O)[C@H](O)[C@H]3O)[C@H]2O)[C@@H]1O [Example 1] as the compound, how does the EC50 read?
Answer: 8.2 nM

Question: For CC(=O)N[C@H]1[C@H](OCCCNCc2cccc(C(=O)NCCNC(=O)CCCC[C@@H]3SC[C@@H]4NC(=O)N[C@@H]43)c2)O[C@H](CO)[C@@H](O[C@@H]2O[C@H](CO)[C@H](O)[C@H](O[C@H]3O[C@H](CO)[C@H](O)[C@H](O)[C@H]3O)[C@H]2O)[C@@H]1O [Example 17, 3-(((3-(((2R,3R,4R,5S,6R)-3-Acetamido-5-(((2S,3R,4S,5S,6R)-3,5-dihydroxy-6-(hydroxymethyl)-4-(((2R,3R,4S,5R,6R)-3,4,5-trihydroxy-6-(hydroxymethyl)tetrahydro-2H-pyran-2-yl)oxy)tetrahydro-2H-pyran-2-yl)oxy)-4-hydroxy-6-(hydroxymethyl)tetrahydro-2H-pyran-2-yl)oxy)propyl)amino)methyl)-N-(2-(5-((3aS,4S,6aR)-2-oxohexahydro-1H-thieno[3,4-d]imidazol-4-yl)pentanamido)ethyl)benzamide], which EC50 is on record?
Answer: 17.7 nM
